Results as given in patent publication US4269717A, “Boiler additives for oxygen scavenging” (priority 1980, dated 1981).
Where two headings read alike, the source gives them in different places.

Columns and labels:
[1] = 227-239° F.; for % O2 Removal / Final O2: initial O2 40 ppb; for Oxygen scavenging activity relative to hydrazine: Table II
Description: A second more extensive group of potential oxygen scavengers were compared, again using a small laboratory boiler and oxygen saturated feed water containing sodium hydroxide. […] The hydrazine salts among this group are no less toxic than hydrazine and therefore were eliminated from further study. […] In addition, the carbohydrazide was preferred because it is a solid at room temperature and could therefore be used in dry formulations.
INITIAL SCREENING AT 227-239° F.

[2] = Metal passivation in experimental firerod boiler (Table IV); details: 600 p.s.i., 48 hour test
Description: Metal passivation studies were undertaken using an experimental firerod boiler under the following test conditions:
10 boiler water concentrations
40 ppm M alkalinity (as CaCO3)
A blank containing no oxygen scavenger was followed by test runs with hydrazine, carbohydrazide, and sodium sulfite.
*Tubes ranked by appearance of metal surface.

[3] = Initial oxygen scavenger screening in laboratory boiler at 200-220° F. (Table I)
Description: A small laboratory boiler was used to screen a number of potential oxygen scavengers. Oxygen saturated feed water which contained sodium hydroxide was used as the feed. The residence time for the treatment chemical was approximately 11 minutes. The boiler water temperature was maintained at between 200°-220° F. In these tests, 2% hydroquinone was used as the catalyst.
INITIAL SCREENING AT 200-220° F.

[4] = Carbohydrazide vs. hydrazine in oxygen removal, once-through apparatus (Table III); details: initial O2 7.4 ppm, 227-239° F., pH about 10.5
Description: A once-through experimental apparatus for simulating boiler water transport was utilized in this example. Water temperature in this example was maintained at about 227°-239° F. and pH at about 10.5.

[5] = Carbohydrazide low temperature hydrolysis (Table V); type: physicochemical; details: for ppm Hydrazine: 100 ppm hydrazine control, pH 10.25
Description: Low temperature hydrolysis studies of carbohydrazide were carried out using reagent grade carbohydrazide containing approximately 2.7±0.1% hydrazine as an impurity. A 1,000 ppm carbohydrazide solution and a 100 ppm hydrazine solution were prepared with deaerated, deionized water. Half of the carbohydrazide solution was adjusted to pH 10.2 with sodium hydroxide and the other half was left at its original pH of 6.9. The solutions were poured into Nessler tubes to overflowing and sealed with stoppers fitted with hypodermic needles to allow pressure release with minimum air contact. Four samples of both of the carbohydrazide solutions and two samples of the hydrazine control were stored at varying temperatures for varying periods of time, all as reported in Table V below.

Solubility in water = type: physicochemical

Compound | % O2 Removal [1] [%] | Final O2 [1] [ppb] | Oxygen scavenging activity relative to hydrazine [1] | also measured
O=CNNC=O [Diformohydrazide] | 0 | 40 |  | 
NN.NN.O=S(O)O [Hydrazinium sulfite, reference compound] |  | 5 | activity comparable to hydrazine | 
O=S([O-])[O-].[Na+].[Na+] [Na2 SO3, sodium sulfite, reference compound] |  |  |  | Tube Rank (by appearance of metal surface) ([2]; dosage 20-40 ppm residual): 2; Final O2 ([3]; dosage 400 ppb, pH 9.65, initial O2 40 ppb): .005 ppb
COC(=O)NNC(=O)OC [Dimethyldihydrazodicarboxylate] | 50 | 20 |  | 
NN [Hydrazine, hydrazine, reference compound] | 87.5 | 5 |  | Tube Rank (by appearance of metal surface) ([2]; dosage 2 ppm): 3; % O2 Removal ([4]; ppm scavenger/ppm O2 0.1/1): 15.4%; Final O2 ([4]; ppm scavenger/ppm O2 0.1/1): 6.26 ppm; % O2 Removal ([4]; ppm scavenger/ppm O2 0.9/1): 70.5%; Final O2 ([4]; ppm scavenger/ppm O2 0.9/1): 2.18 ppm; % O2 Removal ([4]; ppm scavenger/ppm O2 10.0/1): 99.2%; Final O2 ([4]; ppm scavenger/ppm O2 10.0/1): 0.06 ppm; ppm Hydrazine ([5]; 120° F., 6 days): 86.6 ppm; ppm Hydrazine ([5]; 180° F., 6 days): 87.6 ppm; ppm Hydrazine ([5]; Room Temp. (77° F.), 6 days): 89.8 ppm; ppm Hydrazine ([5]; time 0): 97.4 ppm; Loss of initial hydrazine concentration ([5]; hydrazine control, after 6 days): approximately 10%
Di (methylformal)diazine | 0 | 40 |  | 
O=C(O)NNC(=O)O [Disodiumdihydrazodicarboxylate] | 75 | 10 | activity comparable to hydrazine | 
NNC(=O)C(=O)NN [Oxalic dihydrazide] |  |  |  | Solubility in water (Table II) (Solubility in water): Insoluble In Water
NNC=O [Formohydrazide] | 0 | 40 |  | 
NN.O=S(=O)(O)O [Hydrazine sulfate, Hydrazinium sulfate, reference compound] | 87.5 | 5 | activity comparable to hydrazine | Final O2 ([3]; dosage 500 ppb, pH 10.5, initial O2 40 ppb, 2% hydroquinone catalyst): 10 ppb
